Laboratory results as given in patent US20120214822A1 (ASTRAZENECA AB, priority 2007, published 2012).
Structures can show the parent of a compound that is named as a salt.

Assays:
[1] = GVS (Dynamic Vapour Sorption) water uptake of crystalline forms; type: physicochemical; details: ±0.2%; for GVS weight increase: at 80% RH; for water uptake as measured by GVS: between RH of 0%-80%
Description: GVS profiles were measured using a Dynamic Vapour Sorption DVS-1 instrument. The solid sample ca. 1-5 mg was placed into a glass vessel and the weight of the sample was recorded during a dual cycle step method (40 to 90 to 0 to 90 to 0% relative humidity (RH), in steps of 10% RH).

[2] = target: human active recombinant p38α-6His tagged (Homo sapiens, UniProt Q16539); experiment: P38 Alpha Enzyme Assay (AlphaScreen, biotinylated-ATF2 substrate); type: biochemical; details: p38 alpha enzyme inhibition; means of replicate determinations; 4 h pre-incubation at 37° C.; SD of assay 0.2-0.3 log units;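 also: 0.5 nM final p38α, reaction started with ATP and run 45 min at 37 °C, phospho-ATF2 read by antibody-based AlphaScreen, background wells quenched with EDTA before ATP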
Sequence of human active recombinant p38α-6His tagged (Q16539 whole entry): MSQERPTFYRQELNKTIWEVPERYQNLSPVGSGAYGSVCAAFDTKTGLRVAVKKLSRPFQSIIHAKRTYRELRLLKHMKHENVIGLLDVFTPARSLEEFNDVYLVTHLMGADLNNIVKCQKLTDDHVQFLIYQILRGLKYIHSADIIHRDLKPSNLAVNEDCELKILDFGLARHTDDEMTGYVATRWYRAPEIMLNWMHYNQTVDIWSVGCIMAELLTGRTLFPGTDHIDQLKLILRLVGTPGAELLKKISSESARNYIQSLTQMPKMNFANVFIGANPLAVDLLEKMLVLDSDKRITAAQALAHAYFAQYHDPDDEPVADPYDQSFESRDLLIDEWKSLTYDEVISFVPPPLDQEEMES

SMILES	pIC50 [2]	further results
CNCCOc1ccccc1C(C)(C)Nc1nccn(-c2cc(C(=O)NC3CC3)ccc2C)c1=O [example 163 crystalline form B, N-Cyclopropyl-4-methyl-3-[3-[[1-methyl-1-[2-[2-(methylamino)ethoxy]phenyl]ethyl]amino]-2-oxo-1(2H)-pyrazinyl]-benzamide Crystalline Form B]	–	GVS weight increase [1]: 4.3 % w/w
CNCCOc1ccccc1C(C)(C)Nc1nccn(-c2cc(C(=O)NC3CC3)ccc2C)c1=O.Cc1ccc(S(=O)(=O)O)cc1 [N-Cyclopropyl-4-methyl-3-[3-[[1-methyl-1-[2-[2-(methylamino)ethoxy]phenyl]ethyl]amino]-2-oxo-1(2H)-pyrazinyl]-benzamide Tosylate Salt Crystalline Form A]	–	GVS weight increase [1]: 0.1 % w/w
CNCCOc1ccccc1C(C)(C)Nc1nccn(-c2cc(C(=O)NC3CC3)ccc2C)c1=O [example 163 crystalline form A, N-Cyclopropyl-4-methyl-3-[3-[[1-methyl-1-[2-[2-(methylamino)ethoxy]phenyl]ethyl]amino]-2-oxo-1(2H)-pyrazinyl]-benzamide Crystalline Form A]	–	GVS weight increase [1]: 5 % w/w
CNCCOc1ccccc1C(C)(C)Nc1nccn(-c2cc(C(=O)NC3CC3)ccc2C)c1=O [example 163 crystalline form C, N-Cyclopropyl-4-methyl-3-[3-[[1-methyl-1-[2-[2-(methylamino)ethoxy]phenyl]ethyl]amino]-2-oxo-1(2H)-pyrazinyl]-benzamide Crystalline Form C]	–	GVS weight increase [1]: 0.3 % w/w
CNCCOc1ccccc1C1(Nc2nccn(-c3cc(C(=O)NC4CC4)ccc3C)c2=O)CC1 [example 167 Crystalline Form A, N-Cyclopropyl-4-methyl-3-[3-[[1-[2-[2-(methylamino)ethoxy]phenyl]cyclopropyl]amino]-2-oxo-1(2H)-pyrazinyl]-benzamide Crystalline Form A]	–	water uptake as measured by GVS [1]: 1%
CCNC(=O)c1ccc(C)c(-n2ccnc(NCc3ccccc3)c2=O)c1 [Example 115, N-Ethyl-4-methyl-3-[2-oxo-3-[(phenylmethyl)amino]-1(2H)-pyrazinyl]-benzamide]	6.9	–
Cc1ccc(C(=O)N2CCCC2)cc1-n1cc(Br)nc(N2CCN(CCN3CCCC3)C(c3ccccc3)C2)c1=O (centres unmarked) [Example 122, 1-[3-[5-Bromo-2-oxo-3-[3-phenyl-4-[2-(1-pyrrolidinyl)ethyl]-1-piperazinyl]-1(2H)-pyrazinyl]-4-methylbenzoyl]-pyrrolidine]	5.6	–
CNCCOc1ccccc1C1(Nc2nccn(-c3cc(C(=O)NC4CC4)ccc3C)c2=O)CCC1 [Example 268, N-Cyclopropyl-4-methyl-3-[3-[[1-[2-[2-(methylamino)ethoxy]phenyl]cyclobutyl]amino]-2-oxo-1(2H)-pyrazinyl]-benzamide]	10	–
CNCCOc1ccccc1C1(Nc2nccn(-c3cc(C(=O)NC4CC4)cc(F)c3C)c2=O)CC1 [Example 259, N-Cyclopropyl-3-fluoro-4-methyl-5-[3-[[1-[2-[2-(methylamino)ethoxy]phenyl]cyclopropyl]amino]-2-oxo-1(2H)-pyrazinyl]-benzamide]	10	–
Cc1ccc(C(=O)NC2CC2)cc1-n1cc(Cl)nc(NCCCN(C)C)c1=O [Example 108, 3-[5-Chloro-3-[[3-(dimethylamino)propyl]amino]-2-oxo-1(2H)-pyrazinyl]-N-cyclopropyl-4-methyl-benzamide]	6.3	–
CNCCOc1ccccc1C1(Nc2nccn(-c3cc(C(=O)NC4CC4)cc(F)c3C)c2=O)CC1 [example 259 crystalline form A, N-Cyclopropyl-3-fluoro-4-methyl-5-[3-[[1-[2-[2-(methylamino)ethoxy]phenyl]cyclopropyl]amino]-2-oxo-1(2H)-pyrazinyl]-benzamide Crystalline Form A]	–	water uptake as measured by GVS [1]: 0.4%
CNC[C@H](O)COc1ccccc1C1(Nc2nccn(-c3cc(C(=O)NC4CC4)ccc3C)c2=O)CC1 [Example 304, N-Cyclopropyl-3-[3-{[1-(2-{[(2S)-2-hydroxy-3-(methylamino)propyl]oxy}phenyl)cyclopropyl]amino}-2-oxopyrazin-1(2H)-yl]-4-methylbenzamide]	10.2	–
CONC(=O)c1ccc(C)c(-n2ccnc(C3CCCC3)c2=O)c1 [Example 127, 3-(3-cyclopentyl-2-oxo-1(2H)-pyrazinyl)-N-methoxy-4-methyl-benzamide]	7.3	–
CCNCCOc1ccccc1C1(Nc2nccn(-c3cc(C(=O)NC4CC4)cc(F)c3C)c2=O)CC1 [Example 262, N-Cyclopropyl-3-[3-[[1-[2-[2-(ethylamino)ethoxy]phenyl]cyclopropyl]amino]-2-oxo-1(2H)-pyrazinyl]-5-fluoro-4-methyl-benzamide]	10.2	–
CC[C@@H](Nc1nccn(-c2cc(C(=O)NOC)ccc2C)c1=O)c1ccccc1 [Example 113, N-Methoxy-4-methyl-3-[2-oxo-3-[[(1R)-1-phenylpropyl]amino]-1(2H)-pyrazinyl]-benzamide, trifluoroacetate]	9.8	–
CCNC[C@@H](O)COc1ccccc1C1(Nc2nccn(-c3cc(C(=O)NC4CC4)ccc3C)c2=O)CC1 [Example 300, N-Cyclopropyl-3-[3-{[1-(2-{[(2R)-3-(ethylamino)-2-hydroxypropyl]oxy}phenyl)cyclopropyl]amino}-2-oxopyrazin-1(2H)-yl]-4-methylbenzamide]	10.3	–
Cc1ccc(C(=O)NC2CC2)cc1-n1ccnc(NCC2CCOCC2)c1=O [Example 90, N-Cyclopropyl-4-methyl-3-[2-oxo-3-[[(tetrahydro-2H-pyran-4-yl)methyl]amino]-1(2H)-pyrazinyl]-benzamide]	6.4	–
Cc1ccc(C(=O)NC2CC2)cc1-n1ccnc(NC2(c3cccc(F)c3OCCN)CC2)c1=O [Example 284, 3-[3-({1-[2-(2-Aminoethoxy)-3-fluorophenyl]cyclopropyl}amino)-2-oxopyrazin-1(2H)-yl]-N-cyclopropyl-4-methylbenzamide]	9.5	–
Cc1c(F)cc(C(=O)NC2CC2)cc1-n1ccnc(NC2(c3ccccc3OCCNCCO)CC2)c1=O [example 260 crystalline form A, N-Cyclopropyl-3-fluoro-5-[3-[[1-[2-[2-[(2-hydroxyethyl)amino]ethoxy]phenyl]cyclopropyl]amino]-2-oxo-1(2H)-pyrazinyl]-4-methyl-benzamide Crystalline Form A]	–	water uptake as measured by GVS [1]: 1.2%
Cc1ccc(C(=O)NC2CC2)cc1-n1ccnc(NC(C)(C)c2ccccc2OC(C)CN2CCN(C)CC2)c1=O (centres unmarked) [Example 209, N-Cyclopropyl-4-methyl-3-[3-[[1-methyl-1-[2-[1-methyl-2-(4-methyl-1-piperazinyl)ethoxy]phenyl]ethyl]amino]-2-oxo-1(2H)-pyrazinyl]-benzamide]	8.9	–

Further lines, with some results ahead:

pIC50 [2]	SMILES	further results
9	CCONC(=O)c1ccc(C)c(-n2ccnc(NC(C)(C)c3ccccc3OCCNC)c2=O)c1 [Example 222, N-Ethoxy-4-methyl-3-[3-[[1-methyl-1-[2-[2-(methylamino)ethoxy]phenyl]ethyl]amino]-2-oxo-1(2H)-pyrazinyl]-benzamide]	–
9.1	Cc1ccc(C(=O)NC2CC2)cc1-n1ccnc(NC(C)(C)c2ccccc2OCCN2CCCCC2)c1=O [Example 201, N-Cyclopropyl-4-methyl-3-[3-[[1-methyl-1-[2-[2-(1-piperidinyl)ethoxy]phenyl]ethyl]amino]-2-oxo-1(2H)-pyrazinyl]-benzamide]	–
8.4	CCc1ccc(C(=O)NC2CC2)cc1-n1ccnc(NC(C)(C)c2ccccc2OCCNC)c1=O [Example 288, N-Cyclopropyl-4-ethyl-3-{3-[(1-methyl-1-{2-[2-(methylamino)ethoxy]phenyl}ethyl)amino]-2-oxopyrazin-1(2H)-yl}benzamide]	–
